According to paper PMC9286713 (CPT: Pharmacometrics & Systems Pharmacology, 2022):
In brackets after ≈: the same amount, converted by molar mass. Read-outs that look alike come from different tables or passages of the source.

Legend:
[1] = human ADME study (unpublished data); cited from earlier work
logP determination = assay type: physicochemical
pKa determination = assay type: physicochemical
[2] = Solubility‐pH profile in buffers at 37°C; assay type: physicochemical
Blood/plasma ratio = assay type: in vitro ADME; settings: blood and plasma
MATE1 = target: T1, MATE1 (Homo sapiens, UniProt Q96FL8); assay: MATE1 inhibition; assay type: in vitro ADME
T1 sequence (Q96FL8 1-570): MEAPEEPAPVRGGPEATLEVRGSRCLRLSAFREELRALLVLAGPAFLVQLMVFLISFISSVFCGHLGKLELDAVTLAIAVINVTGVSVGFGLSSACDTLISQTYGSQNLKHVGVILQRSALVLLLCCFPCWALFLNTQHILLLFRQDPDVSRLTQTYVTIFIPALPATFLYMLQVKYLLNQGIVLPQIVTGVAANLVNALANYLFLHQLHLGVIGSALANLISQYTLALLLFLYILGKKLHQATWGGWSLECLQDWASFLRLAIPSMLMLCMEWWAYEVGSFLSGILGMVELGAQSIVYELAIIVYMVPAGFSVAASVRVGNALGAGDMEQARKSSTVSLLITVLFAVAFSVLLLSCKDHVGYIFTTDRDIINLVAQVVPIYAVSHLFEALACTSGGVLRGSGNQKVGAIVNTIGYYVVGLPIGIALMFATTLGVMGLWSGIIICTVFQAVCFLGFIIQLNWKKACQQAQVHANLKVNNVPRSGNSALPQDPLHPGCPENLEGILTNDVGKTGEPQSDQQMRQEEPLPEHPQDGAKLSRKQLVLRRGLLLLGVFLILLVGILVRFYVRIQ

P‐glycoprotein (P‐gp) = P‐glycoprotein (P‐gp) (Homo sapiens, UniProt P08183); assay: In vitro transport study, pemigatinib as substrate: P‐gp mediated efflux; assay type: in vitro ADME; settings: data on file
Sequence of P‐glycoprotein (P‐gp) (P08183 whole entry): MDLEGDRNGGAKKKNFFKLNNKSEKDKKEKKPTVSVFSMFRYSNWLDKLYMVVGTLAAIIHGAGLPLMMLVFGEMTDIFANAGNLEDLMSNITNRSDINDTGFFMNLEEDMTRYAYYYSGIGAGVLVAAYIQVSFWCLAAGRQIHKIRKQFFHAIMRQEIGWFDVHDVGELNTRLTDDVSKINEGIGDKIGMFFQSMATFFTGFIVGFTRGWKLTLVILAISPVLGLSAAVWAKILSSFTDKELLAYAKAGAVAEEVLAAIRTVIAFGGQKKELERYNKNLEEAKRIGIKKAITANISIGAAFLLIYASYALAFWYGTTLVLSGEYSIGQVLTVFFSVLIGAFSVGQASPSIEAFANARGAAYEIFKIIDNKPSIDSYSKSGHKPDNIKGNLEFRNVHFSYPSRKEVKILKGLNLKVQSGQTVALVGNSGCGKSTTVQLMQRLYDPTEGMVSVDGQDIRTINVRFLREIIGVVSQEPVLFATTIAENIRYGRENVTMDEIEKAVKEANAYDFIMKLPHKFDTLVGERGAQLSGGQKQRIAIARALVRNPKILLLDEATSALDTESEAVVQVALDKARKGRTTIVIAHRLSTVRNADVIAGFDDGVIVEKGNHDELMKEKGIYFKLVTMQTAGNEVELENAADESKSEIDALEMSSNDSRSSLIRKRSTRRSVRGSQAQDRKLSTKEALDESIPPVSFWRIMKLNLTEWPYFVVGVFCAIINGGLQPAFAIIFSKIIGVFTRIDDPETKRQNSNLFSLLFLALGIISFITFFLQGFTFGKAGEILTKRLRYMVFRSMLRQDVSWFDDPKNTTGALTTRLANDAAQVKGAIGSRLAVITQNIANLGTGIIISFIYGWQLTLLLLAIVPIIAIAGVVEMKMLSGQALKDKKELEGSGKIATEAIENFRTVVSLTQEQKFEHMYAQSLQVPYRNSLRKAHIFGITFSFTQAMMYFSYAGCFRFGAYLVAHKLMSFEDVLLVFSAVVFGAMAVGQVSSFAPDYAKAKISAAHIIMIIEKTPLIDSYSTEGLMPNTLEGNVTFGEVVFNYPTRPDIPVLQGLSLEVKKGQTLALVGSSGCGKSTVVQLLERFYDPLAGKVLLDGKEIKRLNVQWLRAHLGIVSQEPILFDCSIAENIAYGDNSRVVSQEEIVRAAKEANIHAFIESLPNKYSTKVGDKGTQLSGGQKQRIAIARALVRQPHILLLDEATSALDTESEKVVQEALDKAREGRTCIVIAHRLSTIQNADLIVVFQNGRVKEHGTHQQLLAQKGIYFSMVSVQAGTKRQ

[3] = Human mass balance / ADME study in healthy participants; assay type: in vivo
[4] = cited from earlier work; for Observed AUC0–∞: geometric mean
[5] = patients with cancer, cited from earlier work; for Observed AUCss,0–24: geometric mean
[6] = fed state; cited from earlier work
[7] = cited from earlier work
OCT2 = target: T2, OCT2 (Homo sapiens, UniProt O15244); assay: OCT2 inhibition
T2 sequence (O15244 1-555): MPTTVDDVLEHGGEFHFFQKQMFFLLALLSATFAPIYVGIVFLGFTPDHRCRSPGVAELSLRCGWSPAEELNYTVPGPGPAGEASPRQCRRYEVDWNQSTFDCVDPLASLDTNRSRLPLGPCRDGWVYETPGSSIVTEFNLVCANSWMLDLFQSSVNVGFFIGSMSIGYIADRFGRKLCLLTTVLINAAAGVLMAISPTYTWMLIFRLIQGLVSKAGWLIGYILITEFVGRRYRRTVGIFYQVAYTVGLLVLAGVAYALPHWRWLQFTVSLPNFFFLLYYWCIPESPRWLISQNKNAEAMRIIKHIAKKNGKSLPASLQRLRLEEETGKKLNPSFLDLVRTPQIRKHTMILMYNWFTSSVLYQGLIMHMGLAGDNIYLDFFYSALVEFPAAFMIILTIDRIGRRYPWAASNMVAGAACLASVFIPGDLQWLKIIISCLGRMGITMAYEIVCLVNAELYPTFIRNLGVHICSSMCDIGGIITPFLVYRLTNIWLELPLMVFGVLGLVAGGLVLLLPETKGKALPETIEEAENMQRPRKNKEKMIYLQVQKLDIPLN

P‐gp = P‐gp (Homo sapiens, UniProt P08183); assay: P‐gp inhibition
Sequence of P‐gp (P08183 whole entry): as the sequence (P08183 whole entry) above

[8] = healthy participants, unpublished data

CCN1C(=O)N(c2c(F)c(O)cc(OC)c2F)Cc2cnc3[nH]c(CN4CCOCC4)cc3c21 [M2, O‐desmethyl‐pemigatinib]
Metabolite burden in urine and feces derived from M2 and its secondary metabolites [1]: 76.9%

CCN1C(=O)N(c2c(F)c(OC)cc(OC)c2F)Cc2cnc3[nH]c(CN4CCOCC4)cc3c21 [pemigatinib, Pemigatinib]
logP (logP determination): 2.2
Compound type (pKa determination): Diprotic base
pKa (pKa determination; first printed pKa of the diprotic base): 5.7
pKa (pKa determination; second printed pKa of the diprotic base): 3.1
solubility ([2]; buffer, 37 °C, pH 1.2, aqueous buffer, Solubility, pH 1.2 buffer): ~710 µg/mL (≈ 1460 µM)
solubility ([2]; buffer, 37 °C, pH 2, aqueous buffer, Solubility, pH 2.0 buffer): 650 µg/mL (≈ 1330 µM)
solubility ([2]; buffer, 37 °C, pH 6.5, aqueous buffer, Solubility, pH 6.5 buffer): < 1 µg/mL
solubility ([2]; buffer, 37 °C, pH 7.4, aqueous buffer, Solubility, pH 7.4 buffer): < 1 µg/mL
solubility ([2]; buffer, pH 3.3, Solubility, pH 3.3): 200 µg/mL (≈ 410 µM)
solubility ([2]; buffer, pH 4.3, Solubility, pH 4.3): 30 µg/mL (≈ 61.5 µM)
solubility ([2]; buffer, pH 5.3, Solubility, pH 5.3): 1 µg/mL (≈ 2.05 µM)
solubility ([2]; pH 1.2 buffer, 37°C): 710 µg/mL (≈ 1460 µM)
blood plasma ratio (Blood/plasma ratio): 0.96
IC50 (MATE1): 1.1 µM
Concentration at which P‐gp mediated efflux was saturated (P‐glycoprotein (P‐gp)): 1000 nM
Total radioactivity excreted in feces [3, 8]: 82.4%
Total radioactivity excreted in urine [3, 8]: 12.6%
Radioactivity blood/plasma value ([3]; human ADME study): 0.80
CL renal ([3]; human, urine, oral): ~3.33 mL/min
Administered radioactive dose recovered as unchanged pemigatinib in feces ([3]; in vivo): 1.4%
Dose excreted in urine as unchanged pemigatinib (renal excretion) ([3]; in vivo): ~ 1%
Increase in pemigatinib AUC ([4]; itraconazole coadministration): ~90%
Increase in pemigatinib Cmax ([4]; itraconazole coadministration): ~20%
CLpo (oral clearance) ([4]; pemigatinib alone cohort of itraconazole DDI study, healthy volunteers): 14.5 L/h
Decrease in half‐life of pemigatinib ([4]; rifampin coadministration): 63%
Decrease in pemigatinib AUC ([4]; rifampin coadministration): 85%
Observed AUC0–∞ ([4]; single oral dose 4.5 mg, healthy volunteers): 0.672 µM·h
Observed AUC0–∞ ([4]; single oral dose 13.5 mg, healthy volunteers): 1.96 µM·h
Observed AUCss,0–24 ([5]; multiple oral doses 6 mg): 1.05 µM·h
Observed AUCss,0–24 ([5]; multiple oral doses 9 mg): 1.67 µM·h
Terminal half‐life ([5]; oral dosing): ~ 15 h
CLpo (oral clearance) ([5]; phase I study): 12.0 L/h
Apparent volume of distribution, geometric mean [5]: 173 to 244 L
SS oral clearance, geometric mean [5]: 9.88 to 11.7 L/h
Decrease of geometric mean Cmax [6]: 18%
Increase of geometric mean AUC0–24 at SS [6]: 11%
Total radioactivity accounted for by known metabolites [1]: 72%
Decrease of geometric mean AUC of pemigatinib ([7]; coadministration with esomeprazole): 8%
Decrease of geometric mean Cmax of pemigatinib ([7]; coadministration with histamine‐2 antagonist ranitidine): 2%
Decrease of geometric mean Cmax of pemigatinib ([7]; coadministration with proton pump inhibitor esomeprazole): 35%
Increase of geometric mean AUC of pemigatinib ([7]; coadministration with ranitidine): 3%
IC50 (OCT2): 0.075 µM
IC50 (P‐gp): 4.8 µM
